Here are results for 100 compounds from ChEMBL document CHEMBL3507680, “University of Dundee, Gates Library screen for HepG2 cell viability”.

The data set can be described thus: Human HepG2 cell viability assay in 384 well format. Type of data set: toxicity, cell-based. Also on record: dose 125 nL, time 70.5 hour; concentration not given beside the values. The following applies: HepG2 cells, read-out: Inhibition.
On to `CCOc1ccccc1CNS(=O)(=O)c1ccc2c(c1)CCCC(=O)N2`, for which the cytotoxicity at 70.5 h was -9.4%. The result for `Cc1nc(CN(C)C2CCN(CCc3ccc4c(c3)CCO4)C2)no1` (stereo not given) reads 1.48%; that for `Cc1cc(NC(=O)C(C)N2CCN(c3ccccc3F)CC2)no1` (stereo not given), 4.65%. Next, `CCN(CC)C(=O)CCCNC(=O)c1csc(NC2CC2)n1`: -9.34%. Next, `CC(C)CN1CC(C(=O)NCc2cccnc2-n2cccn2)CC1=O` (stereo not given): -8.02%; `Cc1c(Br)c(C(=O)NC(C)c2ccccc2)nn1C` (stereo not given): -13%. Turning to `CN(C)c1cc(CC(NC(=O)C2CC2)c2ccccc2)nc(C2CC2)n1` (stereo not given), the cytotoxicity at 70.5 h is 16.9%. The result for `COc1nccc(N2CC[C@H](CO)[C@@H](O)C2)c1C#N` reads -6.06%. The result for `Cc1nc(N(C)C)nc(NCCc2c[nH]cn2)c1C` reads 23.7%.

Turning to `Cn1c(C(=O)N2CC[C@@]3(O)CCCC[C@H]3C2)cc2ccccc21`, the cytotoxicity at 70.5 h was -3.98%. Next, `NC(=O)Cn1cnc2nc3n(c2c1=O)CCC3`: 16.5%; `CC(C)(C)c1ncc(CNc2ccccc2Cn2cncn2)s1`: -8.54%. Next, `CCn1cc(CN2CCCN(C(=O)c3ccccc3C)CC2)cn1`: -2.18%. The result for `CC(C)c1ccc(CN[C@@H]2COC[C@H]2c2ccc(F)cc2)cc1` reads -5.3%. Consider `Cc1cnn(C2CCCN(C(=O)CCc3c(C)noc3C)C2)c1` (stereo not given), for which the cytotoxicity at 70.5 h was -2.08%. Next, `CN1CCN(C[C@@H]2CN(C3Cc4ccccc4C3)C[C@@H]2CO)CC1`: 22.1%; `CN1CCN(C(=O)c2n[nH]c3c2CN(C2CCOC2)CC3)CC1` (stereo not given): -10.2%; `Cc1cc(C(C)NC(=O)N2CCC(n3cncn3)CC2)c(C)s1` (stereo not given): -17.7%. The result for `O=C(CCCc1cn[nH]c1)N1C[C@@H](CN2CCOCC2)[C@@H](CO)C1` reads 17.7%; that for `CSCCC(CO)NC(=O)c1ccc2[nH]/c(=N\S(C)(=O)=O)sc2c1` (stereo not given), -13.7%; that for `CC(C)c1nnc(CN2CCCC3(CC2)CN(C)C(=O)O3)o1` (stereo not given), -3.73%.

In the case of `Fc1cccc(-c2nc(CN3CCCCC3Cn3cncn3)co2)c1` (stereo not given), the cytotoxicity at 70.5 h is -15.4%. Next, `CC(C)CNC(=O)c1cn(C(C)C)cc2c(=O)[nH]nc1-2`: -7.94%; `COCC(=O)N1CCN(C)c2ncccc2C1`: -0.482%; `Nc1nccc(C2CCCN(CC3CC3)C2)n1` (stereo not given): -4.18%. The result for `NC(=O)c1nc2c(s1)CCN(C(=O)Nc1cccc(Cl)c1)CC2` reads 7.06%.

In the case of `CNC(=O)c1ccc(CN(C)C(=O)Nc2nnc(C(C)C)s2)cc1`, the cytotoxicity at 70.5 h is 2.68%. The result for `O=C1CN(C(=O)c2cccc(C(F)(F)F)c2)CC(O)CN1CC1CC1` (stereo not given) reads 20.9%; that for `COc1c(CNCC(O)c2ccccc2)c(C(C)C)nn1C` (stereo not given), -9.73%.

In the case of `CCN(CC1CCCCO1)C(=O)CCNC(=O)c1ccccc1F` (stereo not given), the cytotoxicity at 70.5 h was -11.6%. Next, `CCc1nc(-c2ccc(NC(=O)N3CCOCC3)cc2)no1`: -3.86%. Take `COc1ccc(CNC2CCc3ncnn3C2)cc1OCCCC#N` (stereo not given): the cytotoxicity at 70.5 h was -9.41%. Next, `CCN(Cc1cccc(NC(=O)COCCOC)c1)C(C)=O`: 1.86%; `CCN(CC1CCOC1)C(=O)c1ccc(-c2ccsc2)nc1C` (stereo not given): -7.65%.

`Cc1cnn(C2CCCN(C(=O)c3cc(-c4ccccc4C)n[nH]3)C2)c1` (stereo not given): the cytotoxicity at 70.5 h turned out to be 9.61%. `Cc1ccccc1C(CC(=O)N1CCc2sccc2C1)NC(N)=O` (stereo not given): the cytotoxicity at 70.5 h was -21.9%.

Consider `CS(=O)(=O)N1CCCC1c1cccc(Nc2nccs2)n1` (stereo not given), for which the cytotoxicity at 70.5 h came out at 28.9%.

On to `O=C(CN1CCS(=O)(=O)CC1)NC1CCCc2ccccc21` (stereo not given), for which the cytotoxicity at 70.5 h is -7.89%. The result for `Cc1nn(-c2ccccc2)nc1C(=O)NCC(c1ccsc1)N(C)C` (stereo not given) reads 13.1%; that for `CCN1CC(CN(C)Cc2nc(-c3cccc(C)c3)oc2C)CC1=O` (stereo not given), 28.2%; that for `Cc1n[nH]cc1CNCC1(c2cccc(F)c2)CCOCC1`, -5.63%. As for `CN1Cc2cc(F)ccc2N(CC(O)C(F)(F)F)CCC1=O` (stereo not given), the cytotoxicity at 70.5 h was determined as 11.8%. The result for `O=S(=O)(NCCC(O)c1ccoc1)c1ccc(Cl)s1` (stereo not given) reads -0.192%.

In the case of `CN(C)CCN1CCC2(CCN(C(=O)c3ccc(F)cc3)CC2)C1=O`, the cytotoxicity at 70.5 h is -8.17%. Turning to `Cn1cc(C(=O)N2CCCC(Cc3cncc4ccccc34)C2)cn1` (stereo not given), the cytotoxicity at 70.5 h was -1.78%. Next, `O=C(CCCc1cn[nH]c1)N1CCOCC(O)C1` (stereo not given): 0.158%.

Take `CCOCC(=O)N1C[C@H]2CN(CC3CC3)C(=O)[C@H]2C1`: the cytotoxicity at 70.5 h is -5.22%. The result for `Cc1cc(CN2CCN(C(=O)Cc3ccccc3F)CC2)on1` reads -14%.

For `Oc1nc(N2CCOCC2)nc2c1CCN(Cc1cccnc1)CC2`, the cytotoxicity at 70.5 h was -1.7%. Next, `O=C1C(NS(=O)(=O)c2ccc(F)cc2)CCN1Cc1ccccc1` (stereo not given): -13.4%; `CCc1cnc(CN(C)C2CCN(CCCS(=O)(=O)NC)C2)o1` (stereo not given): 2.84%.

For `COC(=O)CN1CCC(C(F)(F)F)CC1`, the cytotoxicity at 70.5 h was -2.55%. The result for `CCOc1ccc(-n2nnc(C(=O)O)c2-c2ccccn2)cc1` reads -11.9%. Next, `O=C(NCC(O)c1ccc(Cl)c(F)c1)NC1CC=CC1` (stereo not given): -3.83%; `CCc1nc(NS(=O)(=O)c2cc(C)ccc2Br)no1`: 1.48%. Next, `Cc1cc(CN(CCO)c2ccccc2)on1`: 0.618%; `CCn1cnnc1C1CCN(C(=O)c2ccc3cc[nH]c3c2)CC1`: 5.48%. As to `Cc1cc(-c2nn(C)c(Cl)c2CN2CC[C@@](O)(C3CCC3)[C@H](C)C2)no1`, the cytotoxicity at 70.5 h stood at 0.567%.

With `CCC(C#N)NC(=O)COC1CCCCC1` (stereo not given), the cytotoxicity at 70.5 h is -13.3%. With `CS(=O)(=O)c1ccc(CNC2CCCN(c3cccnn3)C2)cc1` (stereo not given), the cytotoxicity at 70.5 h is -6.92%. Next, `Cn1cc(NC(=O)N2CCC2c2ccccc2)ccc1=O` (stereo not given): -4.87%. The result for `CC1CCCCN1C(=O)CN1CCN(c2ccc3nncn3n2)CC1` (stereo not given) reads -11.2%; that for `COC1CCCN(C(=O)NCC(C)(C)SC)C1` (stereo not given), -11.6%; that for `Cc1cc(C(=O)N2CCN(C(=O)Cc3ccccn3)CC2)c(C)s1`, 0.259%. As for `CCCC(C)NCc1cccnc1N1CCN(c2ccccn2)CC1` (stereo not given), the cytotoxicity at 70.5 h is -5.62%.

With `Cc1cc2ncn(C(=O)N3CCCCC3)c2cc1C`, the cytotoxicity at 70.5 h was -7.84%. Next, `OCCNc1cc(N2CCN(Cc3ccccc3)C(CCO)C2)ncn1` (stereo not given): -7.07%. The result for `CCCn1ncnc1C(C)NC(=O)C1CCN(C(=O)C2CC2)CC1` (stereo not given) reads -3.95%. Next, `O=C(C1CC=CC1)N1CCC2(CCN(Cc3cccc(F)c3)CC2)C1`: -3.05%; `COC(=O)NCCCC(=O)NC1(c2cccc(Cl)c2)CC1`: -6.46%.

`CCc1cccc2cc(CNCCCN3CCOCC3)c(=O)[nH]c12`: the cytotoxicity at 70.5 h worked out at 0.0251%.

For the compound `CC(C)NC(=O)c1noc2c1CN(Cc1cnn(C)c1)CC2`, the cytotoxicity at 70.5 h was -5.58%. `CN(CCc1ccccc1)Cc1nc(-c2cnccn2)no1`: the cytotoxicity at 70.5 h is -8.36%.

`N#CC1(C(=O)Nc2ccc(OC(F)F)cc2)CCCC1`: the cytotoxicity at 70.5 h came out at 8%.

In the case of `Cn1cc(CN2CC[C@H]3O[C@H](C(=O)NC4CC4)CC[C@H]32)c2ccccc21`, the cytotoxicity at 70.5 h was -3.36%. As to `CN(CCc1cnn(C)c1)C(=O)C(c1ccccc1F)N(C)C` (stereo not given), the cytotoxicity at 70.5 h turned out to be 0.281%. Next, `Cc1ccc(OC2(C(=O)O)CCN(C(=O)c3cccc(F)c3)CC2)cn1`: 2.13%; `O=C(c1cc(C2CC2)on1)N1CCC(Oc2ncccc2Cl)CC1`: -6.96%. Next, `NC(=O)N1CCCN(CCc2nc(-c3cccc(Cl)c3)no2)CC1`: 4.65%. The result for `Cc1nn(C)c(N(C)C)c1CNCc1cccnc1` reads 16.2%. As to `Nc1nc(N)c2c(n1)OC1(CCN(C(=O)CC3CCNCC3)CC1)C2`, the cytotoxicity at 70.5 h was 8.24%. Next, `COCCN1C(=O)CCC12CCCN(C(=O)NC(C)C)CC2` (stereo not given): 7.1%; `Cc1ccc(CN2CCCC3(CCN(S(=O)(=O)N(C)C)C3)C2)o1` (stereo not given): -9.63%; `COCCNC(=O)[C@H]1CN2CCC1C[C@@H]2Cn1cc(C(C)(C)C)nn1` (stereo not given in full): -0.883%. The result for `C[C@@H]1CN(Cc2cc3ccccc3n2C)CC[C@]1(C)O` reads 16.1%; that for `CC(C)(CNC(=O)COc1cccc(F)c1)C(N)=O`, -9.07%.

Take `Cn1ccnc1CN1CCCN(C(=O)c2ccc(O)nc2)CC1`: the cytotoxicity at 70.5 h was -4.72%. Next, `CC(O)c1cn(Cc2ccccc2)nn1` (stereo not given): -6.51%. Next, `c1ccc(Oc2nccc3occc23)c(CN2CCCCC2)c1`: 6.4%; `CN1CC(C(=O)NCCc2ccc(Br)cc2F)CC1=O` (stereo not given): -19.2%. As for `Cn1c2c(c(=O)n1C)CN(C(=O)c1cccc(F)c1)CCC2`, the cytotoxicity at 70.5 h came to 1.87%. The result for `N#Cc1ccc(SCCC(=O)N(Cc2cccnc2)C2CC2)cc1` reads -7.83%; that for `CNC(=O)CC1CC2(CCN(S(C)(=O)=O)CC2)c2ccccc21` (stereo not given), -0.621%. Next, `O=C(CCNS(=O)(=O)c1ccccc1)N1CCOC(c2ccccc2)C1` (stereo not given): -18%.

Consider `CN(C)c1ccc(C(=O)N2CCN(CC(C)(C)O)CC2)nn1`, for which the cytotoxicity at 70.5 h is -2.1%. The result for `CCN(Cc1noc(CC(C)C)n1)Cc1ccccc1OCC(=O)O` reads -2.84%. As to `Cc1nc(CN(C)C2CCN(CCc3cccs3)C2)no1` (stereo not given), the cytotoxicity at 70.5 h stood at 23.7%. The result for `Cc1ccc(CNC2(Cc3cc(C(C)(C)O)on3)COC2)o1` reads -5.2%. Next, `Cc1ccc(CN2C[C@H](OCC3CCOCC3)[C@H]3COC[C@H]32)o1`: 17%; `CCCNC(=O)CCC(=O)Nc1cc2sc(C)nc2cc1OC`: 0.815%.
